Series [1] can be described thus: Stability of the compound in acetonitrile/buffer mixture at pH 7.4 assessed as parent compound remaining measured after 24 hrs by HPLC analysis. In kind it is physicochemical. To be noted: read-out: Stabilty.
A short description of series [2]: physchem. To be noted: buffer, pH 7.4.
Description: Lipophilicity, logD of the compound at pH 7.4 by HPLC analysis
The target in series [3] is T1, Cereblon/Ikaros (Homo sapiens) (UniProt Q96SW2+Q13422). Nature of the series: Protac activity at CRBN/IKZF1 in human MM1.S cells assessed as induction of IKZF1 degradation at 1 uM incubated for 6 hrs relative to control. It is filed as cell-based.
For series [4], the target named is T1, Cereblon/Ikaros (Homo sapiens). Nature of the series: Protac activity at CRBN/IKZF1 in human MM1.S cells assessed as protein levels at 1 uM measured after 72 hrs by Western blot analysis relative to control. In kind it is cell-based. (A western blot detects proteins with antibodies after separation by electrophoresis.)
The target of series [5] is Protein cereblon/Cyclin-dependent kinase 4 (Homo sapiens) (UniProt P11802+Q96SW2). In words: Protac activity at CRBN/CDK4 in human MM1.S cells assessed as protein levels at 1 uM measured after 72 hrs by Western blot analysis relative to control. In kind it is cell-based.
Protein cereblon/Cyclin-dependent kinase 4 (Homo sapiens), sequence (P11802 2-303 limits assumed): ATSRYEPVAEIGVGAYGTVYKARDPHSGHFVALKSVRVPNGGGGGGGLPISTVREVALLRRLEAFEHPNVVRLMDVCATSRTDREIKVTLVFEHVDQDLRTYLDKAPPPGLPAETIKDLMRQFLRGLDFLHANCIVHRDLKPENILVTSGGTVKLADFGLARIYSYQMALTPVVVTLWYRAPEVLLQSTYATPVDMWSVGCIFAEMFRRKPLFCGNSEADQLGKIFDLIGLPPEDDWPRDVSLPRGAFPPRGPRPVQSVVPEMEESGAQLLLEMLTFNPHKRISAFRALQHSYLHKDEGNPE
Protein cereblon/Cyclin-dependent kinase 4 (Homo sapiens), sequence (Q96SW2 whole entry partner): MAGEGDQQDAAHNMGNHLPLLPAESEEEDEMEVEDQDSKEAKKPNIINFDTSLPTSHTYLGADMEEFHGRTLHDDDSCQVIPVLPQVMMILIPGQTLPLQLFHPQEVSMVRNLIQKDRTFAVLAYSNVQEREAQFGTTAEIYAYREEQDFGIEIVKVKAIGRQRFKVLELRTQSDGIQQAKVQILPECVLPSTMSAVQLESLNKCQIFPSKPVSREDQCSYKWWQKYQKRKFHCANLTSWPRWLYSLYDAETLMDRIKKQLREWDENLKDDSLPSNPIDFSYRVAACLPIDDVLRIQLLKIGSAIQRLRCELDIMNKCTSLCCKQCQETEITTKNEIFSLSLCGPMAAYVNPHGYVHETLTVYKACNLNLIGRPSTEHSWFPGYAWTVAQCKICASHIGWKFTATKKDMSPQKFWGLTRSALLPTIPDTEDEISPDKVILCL
Series [6] is described as follows: Protac activity at CRBN/IKZF3 in human MM1.S cells assessed as induction of IKZF3 degradation at 0.1 to 1 uM measured after 16 hrs by Western blotting analysis. To be noted: dose 0.1-1 µM.
Series [7] deals with Protein cereblon/Zinc finger protein Aiolos (Homo sapiens) (UniProt Q96SW2+Q9UKT9). In words: Protac activity at CRBN/IKZF3 in human MM1.S cells assessed as protein levels at 1 uM measured after 72 hrs by Western blot analysis relative to control. It is filed as cell-based.
Protein cereblon/Zinc finger protein Aiolos (Homo sapiens), sequence (Q96SW2 whole entry, looked up): as the sequence (Q96SW2 whole entry partner) above
Protein cereblon/Zinc finger protein Aiolos (Homo sapiens), sequence (Q9UKT9 whole entry, looked up): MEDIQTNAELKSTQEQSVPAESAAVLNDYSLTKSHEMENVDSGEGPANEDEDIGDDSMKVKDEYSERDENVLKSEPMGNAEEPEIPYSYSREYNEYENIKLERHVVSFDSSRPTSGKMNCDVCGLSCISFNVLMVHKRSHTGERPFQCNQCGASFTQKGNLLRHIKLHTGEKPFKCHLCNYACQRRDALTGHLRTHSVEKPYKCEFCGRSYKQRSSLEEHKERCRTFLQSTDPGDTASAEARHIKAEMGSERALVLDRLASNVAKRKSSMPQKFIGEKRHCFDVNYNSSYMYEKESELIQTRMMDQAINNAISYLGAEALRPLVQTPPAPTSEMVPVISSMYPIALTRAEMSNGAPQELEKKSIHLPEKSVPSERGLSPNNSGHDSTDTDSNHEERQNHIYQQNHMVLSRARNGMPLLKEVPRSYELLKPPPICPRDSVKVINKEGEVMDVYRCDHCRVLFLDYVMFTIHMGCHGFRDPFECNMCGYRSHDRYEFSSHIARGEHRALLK
Series [8] has as its system MM1.S. In words: Cytotoxicity against human MM1.S cells assessed as effect on cell viability at 0.1 to 10 uM incubated for 72 hrs by luminescence based analysis. To be noted: dose 0.1-10 µM. In kind it is functional.
Series [9] is described as follows: Stability in human plasma assessed as half life measured up tp 120 mins by HPLC analysis. It is filed as ADME, cell-free.

Activity calls are given as the source filed them. The rule behind the calls is not given here.

Experimental findings from ChEMBL document CHEMBL4837268, “Influence of Linker Attachment Points on the Stability and Neosubstrate Degradation of Cereblon Ligands” (ACS Med Chem Lett, 2021) are described below.

For orientation: logD means the decadic logarithm of the distribution of all forms, ionised or not, between an organic phase and buffer at a given pH. As to `O=C1CCC(N2C(=O)c3ccc(C#CCOCCOCCOCc4ccccc4)cc3C2=O)C(=O)N1` (centres undefined), the remaining at 24 h in series [1] was 1%. Besides, the logD in series [2] worked out at 3.3.

`O=C(CNc1ccc2c(c1)C(=O)N(C1CCC(=O)NC1=O)C2=O)NCCOCCOCCOCc1ccccc1` (centres undefined): the remaining at 24 h in [1] stood at 56%. In addition, in series [3], the Activity is 6%. Moreover, the logD in series [2] is 1.8.

In the case of `CC(=O)c1c(C)c2cnc(Nc3ccc(N4CCN(CC(=O)NCCOCCOCCOCC(=O)Nc5cccc6c5CN(C5CCC(=O)NC5=O)C6=O)CC4)cn3)nc2n(C2CCCC2)c1=O` (centres undefined), the Activity in series [4] was greater than 95%; in series [5], 56%; in series [7] it was greater than 95%. The result in series [6] was inactive.

Take `O=C1CCC(N2C(=O)c3ccccc3C2=O)C(=O)N1CCOCCOCCOCc1ccccc1` (centres undefined): the remaining at 24 h in series [1] was determined as 19%.

`O=C1CCC(N2Cc3cc(NCCOCCOCCOCc4ccccc4)ccc3C2=O)C(=O)N1` (centres undefined): the remaining at 24 h in series [1] was found to be 79%. In addition, in series [3], the Activity amounted to 0%. For the same molecule, in series [2], the logD stood at 2.1.

With `CC(=O)c1c(C)c2cnc(Nc3ccc(N4CCN(CC(=O)NCCOCCOCCOCC(=O)NCc5cccc6c5C(=O)N(C5CCC(=O)NC5=O)C6=O)CC4)cn3)nc2n(C2CCCC2)c1=O` (centres undefined), the values for the Activity in series [4], in series [5] and in series [7] were greater than 95%, 68% and greater than 95%, respectively. In addition, the outcome in series [6] and in series [8] was Active.

In general, half-life refers to how long it takes for the measured level to halve. Take `O=C(COCCOCCOCc1ccccc1)NCc1cccc2c1C(=O)N(C1CCC(=O)NC1=O)C2=O` (centres undefined): the half-life in series [9] was greater than 2 h. In addition, the remaining at 24 h in [1] came to 21%. Moreover, the Activity in [3] is 73%. The molecule also displayed a logD in series [2] of 2.

`CC(=O)c1c(C)c2cnc(Nc3ccc(N4CCN(CC(=O)NCCOCCOCCOCCNc5cccc6c5C(=O)N(C5CCC(=O)NC5=O)C6=O)CC4)cn3)nc2n(C2CCCC2)c1=O` (centres undefined): the results for the Activity in [4], in series [5] and in series [7] were 2%, 26% and 2%, respectively. Further, the outcome in [8] was Active.

Regarding `O=C1CCC(N2Cc3cc(NC(=O)COCCOCCOCc4ccccc4)ccc3C2=O)C(=O)N1` (centres undefined), the remaining at 24 h in series [1] came out at 73%. Further, the Activity in series [3] was 6%. In [2], this molecule had a logD of 1.8.

As to `O=C1CCC(N2C(=O)c3ccc(OCCOCCOCCOCc4ccccc4)cc3C2=O)C(=O)N1` (centres undefined), the half-life in [9] is greater than 2 h. Also, the remaining at 24 h in series [1] worked out at 30%. Moreover, in series [3], the Activity was 0%. Further, the logD in [2] is 2.9.

For the molecule `O=C1CCC(N2C(=O)c3ccc(NCCOCCOCCOCc4ccccc4)cc3C2=O)C(=O)N1` (centres undefined), in [1], the remaining at 24 h turned out to be 70%. Besides, the Activity in series [3] worked out at 19%. Moreover, the logD in [2] was 2.6.

Take `O=C(CNc1cccc2c1C(=O)N(C1CCC(=O)NC1=O)C2=O)NCCOCCOCCOCc1ccccc1` (centres undefined): the half-life in series [9] was greater than 2 h. In series [1], the remaining at 24 h came to 68%. The Activity in [3] was determined as 29%. Also, the logD in [2] amounted to 2.1.

As to `O=C1c2cccc(OCCOCCOCCOCc3ccccc3)c2C(=O)N1C1CCCCC1`, the remaining at 24 h in [1] was determined as 90%.

With `O=C(COCCOCCOCc1ccccc1)NCc1ccc2c(c1)C(=O)N(C1CCC(=O)NC1=O)C2=O` (centres undefined), the remaining at 24 h in series [1] stood at 16%. The Activity in series [3] came to 0%. Moreover, the logD in series [2] turned out to be 1.8.

Regarding `O=C1CCC(N2C(=O)c3cccc(NCCOCCOCCOCc4ccccc4)c3C2=O)C(=O)N1` (centres undefined), the half-life in [9] is greater than 2 h. Also, the remaining at 24 h in series [1] turned out to be 80%. In addition, in [3], the Activity amounted to 64%. This molecule also showed a logD in series [2] of 3.1.

For `CC(=O)c1c(C)c2cnc(Nc3ccc(N4CCN(CC(=O)NCCOCCOCCOCCNC(=O)COc5cccc6c5C(=O)N(C5CCC(=O)NC5=O)C6=O)CC4)cn3)nc2n(C2CCCC2)c1=O` (centres undefined), the values for the Activity in [4], in series [5] and in [7] were greater than 95%, 66% and greater than 95%, respectively. Also, the result in series [6] was inactive.

On to `O=C1CCC(N2C(=O)c3cccc(NC(=O)COCCOCCOCc4ccccc4)c3C2=O)C(=O)N1` (centres undefined), for which the half-life in series [9] is 1.97 h. The remaining at 24 h in series [1] was 15%. Moreover, the Activity in series [3] amounted to 14%. Further, in series [2], the logD was 2.6.

Turning to `O=C1CCC(N2Cc3cc(OCCOCCOCCOCc4ccccc4)ccc3C2=O)C(=O)N1` (centres undefined), the half-life in series [9] is greater than 2 h. For the same molecule, the remaining at 24 h in series [1] was determined as 73%. Also, the Activity in series [3] was 16%. Moreover, in [2], the logD is 2.2.

With `O=C1CCC(N2C(=O)c3cccc(C#CCOCCOCCOCc4ccccc4)c3C2=O)C(=O)N1` (centres undefined), in [1], the remaining at 24 h was 6%. The molecule further showed a logD in [2] of 3.2.

`O=C1CCC(N2C(=O)c3ccc(C(=O)NCCOCCOCCOCc4ccccc4)cc3C2=O)C(=O)N1` (centres undefined): in series [1], the remaining at 24 h is 1%. In series [2], the logD stood at 1.9.

In the case of `O=C1CCC(N2Cc3c(NC(=O)COCCOCCOCc4ccccc4)cccc3C2=O)C(=O)N1` (centres undefined), the half-life in [9] turned out to be 1.45 h. For the same molecule, the remaining at 24 h in series [1] was 79%. The Activity in series [3] was determined as 0%. In series [2], this molecule had a logD of 1.6.

In the case of `O=C1CCC(N2C(=O)c3ccc(NC(=O)COCCOCCOCc4ccccc4)cc3C2=O)C(=O)N1` (centres undefined), the remaining at 24 h in series [1] turned out to be 11%. Moreover, in [3], the Activity is 1%. This molecule registered a logD in series [2] of 2.3.

As for `O=C1CCC(N2C(=O)c3cccc(C(=O)NCCOCCOCCOCc4ccccc4)c3C2=O)C(=O)N1` (centres undefined), the remaining at 24 h in [1] came out at 3%. Moreover, the logD in [2] worked out at 1.9.

For `O=C1CCC(N2Cc3c(NCCOCCOCCOCc4ccccc4)cccc3C2=O)C(=O)N1` (centres undefined), the half-life in series [9] is greater than 2 h. For the same molecule, the remaining at 24 h in [1] stood at 74%. Also, the Activity in [3] stood at 5%. This molecule also yielded a logD in series [2] of 2.4.

For `O=C1NCCCC1N1C(=O)c2cccc(OCCOCCOCCOCc3ccccc3)c2C1=O` (centres undefined), the remaining at 24 h in [1] was determined as 99%.

Consider `O=C1CCC(N2Cc3c(OCCOCCOCCOCc4ccccc4)cccc3C2=O)C(=O)N1` (centres undefined), for which the remaining at 24 h in [1] came out at 78%. The Activity in [3] is 22%.

For `O=C(COc1cccc2c1C(=O)N(C1CCC(=O)NC1=O)C2=O)NCCOCCOCCOCc1ccccc1` (centres undefined), in [1], the remaining at 24 h was determined as 17%. In [3], the Activity came out at 0%. The molecule further returned a logD in series [2] of 2.

For `O=C(COc1ccc2c(c1)C(=O)N(C1CCC(=O)NC1=O)C2=O)NCCOCCOCCOCc1ccccc1` (centres undefined), the remaining at 24 h in series [1] worked out at 15%. Further, the Activity in series [3] came to 0%. In [2], this molecule registered a logD of 2.

`O=C1CCC(N2C(=O)c3cccc(OCCOCCOCCOCc4ccccc4)c3C2=O)C(=O)N1` (centres undefined): the remaining at 24 h in [1] was determined as 46%. The Activity in [3] was found to be 5%. The logD in [2] stood at 2.6.
